Test results from ChEMBL document CHEMBL1201862, “PubChem BioAssay data set” (2004).
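Briefly, cells in 96-well plates were exposed to five compound concentrations for 48 h, and endpoints were estimated by linear interpolation. The concentration for 50% growth inhibition is given as GI50.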 Activity calls are given as the source filed them. Cut-off read from the data, not from the text of the source: active = GI50 up to about 1.1 µM and inactive = higher.

Key:
Assay in all cases: NCI tumour cell line growth inhibition, 48 h
[1] = system: HL-60
[2] = system: UO-31
[3] = system: SNB-19
[4] = system: SR
[5] = system: XF498
[6] = system: LXFL 529
[7] = system: UACC-257
[8] = system: LOX IMVI
[9] = system: SF-268
[10] = system: ACHN
[11] = system: SF-295
[12] = system: CAKI-1
[13] = system: NCI/ADR-RES
[14] = system: KM12
[15] = system: Malme-3M
[16] = system: T47D
[17] = system: HOP-18
[18] = system: RPMI-8226
[19] = system: EKVX
[20] = system: SK-OV-3
[21] = system: UACC-62
[22] = system: DLD-1
[23] = system: OVCAR-8
[24] = system: HCC 2998
[25] = system: A498
[26] = system: 786-0
[27] = system: PC-3
[28] = system: SN12C
[29] = system: NCI-H226
[30] = system: HOP-92
[31] = system: U-251
[32] = system: OVCAR-3
[33] = system: OVCAR-4
[34] = system: IGROV-1
[35] = system: NCI-H460
[36] = system: SK-MEL-2
[37] = system: HCT-116
[38] = system: RXF 393
[39] = system: HCT-15
[40] = system: HOP-62
[41] = system: A549
[42] = system: M14
[43] = system: TK-10
[44] = system: HT-29
[45] = system: CCRF-CEM
[46] = system: DMS-114
[47] = system: MDA-MB-435
[48] = system: K562
[49] = system: MOLT-4
[50] = system: BT-549
[51] = system: KM-20L2
[52] = system: Hs-578T
[53] = system: SK-MEL-28
[54] = system: MDA-N
[55] = system: NCI-H522
[56] = system: NCI-H23
[57] = system: SF-539
[58] = system: COLO 205
[59] = system: SK-MEL-5
[60] = system: OVCAR-5
[61] = system: SNB-75
[62] = system: MDA-MB-231
[63] = system: SW-620
[64] = system: MCF7
[65] = system: DU-145
[66] = system: M19-MEL

In the case of `COc1nc(NC2OC(COC(C)=O)C(OC(C)=O)C(OC(C)=O)C2OC(C)=O)c(/N=C/C=N/c2c(NC3OC(COC(C)=O)C(OC(C)=O)C(OC(C)=O)C3OC(C)=O)nc(OC)n(C)c2=O)c(=O)n1C` (stereo unspecified), the GI50 [1] is reported as > 100 µM (inactive), the GI50 [2] is reported as > 100 µM (inactive) and the GI50 [3] is reported as 48.4 µM (inactive). The GI50 [4] was > 100 µM (inactive), the GI50 [5] was 44.2 µM (inactive) and the GI50 [6] was > 100 µM (inactive). The GI50 [7] was > 100 µM (inactive), the GI50 [8] was > 100 µM (inactive) and the GI50 [9] was > 70.3 µM (inactive). For the same molecule, the GI50 [10] was > 100 µM (inactive), the GI50 [11] was 49.2 µM (inactive) and the GI50 [12] was > 100 µM (inactive). For the same molecule, the GI50 [13] was > 100 µM (inactive), the GI50 [14] was > 100 µM (inactive) and the GI50 [15] was > 100 µM (inactive). The GI50 [16] was > 100 µM (inactive), the GI50 [17] was > 100 µM (inactive) and the GI50 [18] was > 100 µM (inactive). The GI50 [19] was > 100 µM (inactive), the GI50 [20] was > 88.3 µM (inactive) and the GI50 [21] was > 100 µM (inactive). For the same molecule, the GI50 [22] was > 100 µM (inactive), the GI50 [23] was > 100 µM (inactive) and the GI50 [24] was > 100 µM (inactive). For the same molecule, the GI50 [25] was > 100 µM (inactive), the GI50 [26] was 51.5 µM (inactive) and the GI50 [27] was > 100 µM (inactive). The GI50 [28] was > 100 µM (inactive), the GI50 [29] was 97.5 µM (inactive) and the GI50 [30] was 39 µM (inactive). The GI50 [31] was 30.5 µM (inactive), the GI50 [32] was > 100 µM (inactive) and the GI50 [33] was > 100 µM (inactive). For the same molecule, the GI50 [34] was > 100 µM (inactive), the GI50 [35] was > 100 µM (inactive) and the GI50 [36] was > 100 µM (inactive). The GI50 [37] was > 100 µM (inactive), the GI50 [38] was 30.5 µM (inactive) and the GI50 [39] was over 100 µM. For the same molecule, the GI50 [40] was 28.1 µM (inactive), the GI50 [41] was > 100 µM (inactive) and the GI50 [42] was > 100 µM (inactive). For the same molecule, the GI50 [43] was 56.4 µM (inactive), the GI50 [44] was > 100 µM (inactive) and the GI50 [45] was > 100 µM (inactive). For the same molecule, the GI50 [46] was > 100 µM (inactive), the GI50 [47] was > 100 µM (inactive) and the GI50 [48] was > 100 µM (inactive). For the same molecule, the GI50 [49] was > 100 µM (inactive), the GI50 [50] was > 100 µM (inactive) and the GI50 [51] was > 100 µM (inactive). The GI50 [52] was 28.3 µM (inactive), the GI50 [53] was > 100 µM (inactive) and the GI50 [54] was > 100 µM (inactive). The GI50 [55] was > 100 µM (inactive), the GI50 [56] was > 100 µM (inactive) and the GI50 [57] was > 100 µM (inactive). The GI50 [58] was > 100 µM (inactive), the GI50 [59] was > 100 µM (inactive) and the GI50 [60] was > 100 µM (inactive). For the same molecule, the GI50 [61] was 17 µM (inactive), the GI50 [62] was > 100 µM (inactive) and the GI50 [63] was > 100 µM (inactive). For the same molecule, the GI50 [64] was > 100 µM (inactive), the GI50 [65] was > 100 µM (inactive) and the GI50 [66] was > 100 µM (inactive).
